In brackets after ≈: the same amount, converted by molar mass.
How the values were obtained:
Experiment in all cases: ≥ marks a high value that may be exact or a test limit, other limits are often not marked, values filed in µg/mL are converted to µM
[1] = tested on: Escherichia coli ATCC 25922
[2] = tested on: Staphylococcus aureus ATCC 29213
Pseudomonas aeruginosa = tested on: Pseudomonas aeruginosa
[3] = tested on: Pseudomonas aeruginosa ATCC 27853
[4] = tested on: Staphylococcus aureus ATCC 25923
Escherichia coli = tested on: Escherichia coli
Staphylococcus aureus = tested on: Staphylococcus aureus

Row | MIC [1] [µM] | MIC [2] [µM] | MIC [3] [µM] | MIC [4] [µM] | Structure (SMILES) | further results
1 | 180 (≈ 250 µg/mL) | 359 (≈ 500 µg/mL) |  |  | CC[C@H](C)[C@H](NC(=O)[C@@H](NC(=O)[C@@H](N)Cc1ccccc1)[C@@H](C)CC)C(=O)N[C@@H](Cc1c[nH]c2ccccc12)C(=O)N1CCC[C@H]1C(=O)N[C@@H](CC(C)C)C(=O)N[C@@H](CCCN=C(N)N)C(=O)N[C@@H](Cc1ccc(O)cc1)C(=O)N[C@@H](CCCN=C(N)N)C(=O)N[C@@H](CCCCN)C(N)=O [FIIWPLRYRK] | 
2 |  |  |  |  | CC[C@H](C)[C@H](NC(=O)[C@H](Cc1ccccc1)NC(=O)[C@H](CO)NC(=O)[C@H](CCCCN)NC(=O)[C@H](Cc1c[nH]c2ccccc12)NC(=O)[C@@H](N)CCCCN)C(=O)N[C@@H](CCCCN)C(=O)N[C@@H](CCCCN)C(=O)N[C@@H](CC(C)C)C(=O)N[C@H](C(=O)N[C@@H](CO)C(=O)N[C@@H](CCCCN)C(=O)N[C@@H](Cc1ccccc1)C(=O)N[C@@H](CC(C)C)C(=O)N[C@@H](Cc1cnc[nH]1)C(=O)N[C@@H](CO)C(=O)N[C@@H](CCCCN)C(=O)N[C@@H](CCCCN)C(=O)N[C@@H](CCCCN)C(=O)N[C@@H](Cc1ccccc1)C(N)=O)[C@@H](C)O [KWKSFIKKLTSKFLHSKKKF] | MIC (Pseudomonas aeruginosa): 4.98 µM (≈ 12.5 µg/mL)
3 | 5.7 (≈ 9.99 µg/mL) |  | 11.4 (≈ 20 µg/mL) | 1.43 (≈ 2.5 µg/mL) | CSCC[C@H](NC(=O)[C@H](CCCN=C(N)N)NC(=O)[C@@H](N)Cc1ccc(O)cc1)C(=O)N[C@@H](Cc1c[nH]c2ccccc12)C(=O)N[C@@H](CCCN=C(N)N)C(=O)N[C@@H](Cc1c[nH]c2ccccc12)C(=O)N[C@@H](C)C(=O)N[C@@H](Cc1c[nH]c2ccccc12)C(=O)N[C@@H](CCCN=C(N)N)C(=O)N[C@@H](Cc1c[nH]c2ccccc12)C(=O)N[C@@H](CCCN=C(N)N)C(N)=O [YRMWRWAWRWR] | 
4 | > 95 |  | > 95 | > 95 | CC(C)C[C@H](NC(=O)[C@H](CCCCN)NC(=O)[C@H](C)NC(=O)[C@H](CC(C)C)NC(=O)[C@@H](N)CCCCN)C(=O)N[C@@H](C)C(=O)N[C@@H](CCCCN)C(N)=O [KLAKLAK] | 
5 | 10 (≈ 18.2 µg/mL) | > 40 |  |  | CC(C)C[C@H](NC(=O)[C@H](CCCCN)NC(=O)[C@H](CC(C)C)NC(=O)[C@H](CC(C)C)NC(=O)[C@H](CCCCN)NC(=O)[C@H](CCCCN)NC(=O)[C@H](CC(=O)O)NC(=O)[C@H](CC(C)C)NC(=O)[C@H](CCCCN)NC(=O)[C@H](CC(C)C)NC(=O)[C@H](CC(C)C)NC(=O)[C@H](CCCCN)NC(=O)[C@H](CCCCN)NC(=O)[C@@H](N)CC(C)C)C(=O)N[C@@H](C)C(=O)NCC(=O)O [LKKLLKLDKKLLKLAG] | 
6 |  |  |  |  | C[C@H](NC(=O)[C@H](C)NC(=O)[C@H](CCCCN)NC(=O)[C@H](C)NC(=O)[C@H](Cc1ccccc1)NC(=O)[C@H](Cc1c[nH]c2ccccc12)NC(=O)[C@H](CCCCN)NC(=O)[C@H](Cc1ccccc1)NC(=O)[C@H](CCCCN)NC(=O)[C@H](CCCCN)NC(=O)[C@H](C)NC(=O)[C@H](Cc1ccccc1)NC(=O)[C@@H](N)CCCCN)C(=O)N[C@@H](Cc1ccccc1)C(=O)N[C@@H](CCCCN)C(=O)N[C@@H](Cc1ccccc1)C(=O)N[C@@H](Cc1ccccc1)C(=O)N[C@@H](CCCCN)C(=O)N[C@@H](CCCCN)C(N)=O [KFAKKFKWFAKAAFKFFKK] | MIC (Escherichia coli): 7.23 µM (≈ 17.3 µg/mL); MIC (Staphylococcus aureus): 4.17 µM (≈ 10 µg/mL)
7 | 5 (≈ 8.39 µg/mL) | > 40 |  |  | CC[C@H](C)[C@H](NC(=O)[C@H](CCCN=C(N)N)NC(=O)[C@H](CCC(N)=O)NC(=O)[C@@H](NC(=O)[C@H](C)NC(=O)[C@H](CCCN=C(N)N)NC(=O)[C@H](CCCCN)NC(=O)[C@@H](N)Cc1ccccc1)C(C)C)C(=O)N[C@@H](CCCCN)C(=O)N[C@@H](CC(=O)O)C(=O)N[C@@H](Cc1ccccc1)C(=O)N[C@@H](CC(C)C)C(=O)N[C@@H](CCCN=C(N)N)C(=O)O [FKRAVQRIKDFLR] | 
8 | 4 (≈ 9.1 µg/mL) |  | 4 (≈ 9.1 µg/mL) | 4 (≈ 9.1 µg/mL) | CC(C)C[C@H](NC(=O)[C@H](CCCCN)NC(=O)[C@H](C)NC(=O)[C@H](CC(C)C)NC(=O)[C@H](CCCCN)NC(=O)[C@H](CCCCN)NC(=O)[C@H](C)NC(=O)[C@H](CC(C)C)NC(=O)[C@H](CCCCN)NC(=O)[C@H](C)NC(=O)[C@H](CC(C)C)NC(=O)[C@H](CCCCN)NC(=O)[C@H](CCCCN)NC(=O)[C@H](C)NC(=O)[C@H](CC(C)C)NC(=O)[C@H](CCCCN)NC(=O)[C@H](C)NC(=O)[C@H](CC(C)C)NC(=O)[C@@H](N)CCCCN)C(=O)N[C@@H](C)C(=O)N[C@@H](CCCCN)C(N)=O [KLAKLAKKLAKLAKKLAKLAK] | 
9 | > 23.8 |  |  |  | CC[C@H](C)[C@H](NC(=O)[C@H](CCCN=C(N)N)NC(=O)[C@@H](NC(=O)[C@H](CCCN=C(N)N)NC(=O)[C@H](CCC(N)=O)NC(=O)[C@H](Cc1cnc[nH]1)NC(=O)[C@@H](NC(=O)[C@H](CCCN=C(N)N)NC(=O)[C@H](CCCN=C(N)N)NC(=O)[C@H](CCCCN)NC(=O)[C@H](CCCN=C(N)N)NC(=O)[C@H](CCCCN)NC(=O)[C@H](CO)NC(=O)[C@H](CCCN=C(N)N)NC(=O)[C@@H](N)CCCCN)[C@@H](C)CC)C(C)C)C(=O)N[C@@H](CO)C(=O)O [KRSKRKRRIHQRVRIS] | MIC (Escherichia coli): > 23.8 µM
10 | 56.6 (≈ 97.1 µg/mL) | > 80 |  |  | CC(=O)N[C@@H](CC(C)C)C(=O)N[C@@H](CCCCN)C(=O)N[C@@H](CCCCN)C(=O)N[C@@H](CC(C)C)C(=O)N[C@@H](CC(C)C)C(=O)N[C@@H](CCCCN)C(=O)N[C@@H](CC(C)C)C(=O)N1CCC[C@H]1C(=O)N[C@@H](CCCCN)C(=O)N[C@@H](CCCCN)C(=O)N[C@@H](CC(C)C)C(=O)N[C@@H](CC(C)C)C(=O)N[C@@H](CCCCN)C(=O)N[C@@H](CC(C)C)C(N)=O [LKKLLKLPKKLLKL] | 
11 | > 143 | > 143 | > 143 |  | CC[C@H](C)[C@H](NC(=O)[C@H](CCSC)NC(=O)[C@H](C)NC(=O)[C@@H]1CCCN1C(=O)[C@@H](NC(=O)[C@@H](NC(=O)[C@H](CCCCN)NC(=O)[C@@H](NC(=O)[C@H](CC(C)C)NC(=O)CN)[C@@H](C)CC)[C@@H](C)CC)C(C)C)C(=O)N[C@H]1CSSC[C@@H](C(=O)O)NC(=O)[C@H](CCCCN)NC(=O)[C@H](CCCCN)NC(=O)[C@H]([C@@H](C)O)NC(=O)[C@H](C(C)C)NC(=O)[C@H](C)NC1=O [GLIKIVPAMICAVTKKC] | 
12 | 5 (≈ 8.89 µg/mL) | 5 (≈ 8.89 µg/mL) |  |  | CC(C)C[C@H](NC(=O)[C@H](C)NC(=O)[C@H](CCCCN)NC(=O)[C@H](CCCCN)NC(=O)[C@@H](N)CC(C)C)C(=O)N[C@@H](CCCCN)C(=O)N[C@@H](CC(C)C)C(=O)N[C@@H](CC(C)C)C(=O)N[C@@H](CCCCN)C(=O)N[C@@H](CCCCN)C(=O)N[C@@H](CC(C)C)C(=O)N[C@@H](CC(C)C)C(=O)N[C@@H](CCCCN)C(=O)N[C@@H](CC(C)C)C(=O)N[C@@H](C)C(=O)NCC(=O)O [LKKALKLLKKLLKLAG] | 
13 | 5 (≈ 8.89 µg/mL) | 5 (≈ 8.89 µg/mL) |  |  | CC(C)C[C@H](NC(=O)[C@H](C)NC(=O)[C@H](CCCCN)NC(=O)[C@H](CCCCN)NC(=O)[C@H](CC(C)C)NC(=O)[C@H](CC(C)C)NC(=O)[C@H](CCCCN)NC(=O)[C@H](CC(C)C)NC(=O)[C@H](CC(C)C)NC(=O)[C@H](CCCCN)NC(=O)[C@H](CCCCN)NC(=O)[C@@H](N)CC(C)C)C(=O)N[C@@H](CCCCN)C(=O)N[C@@H](CC(C)C)C(=O)N[C@@H](C)C(=O)NCC(=O)O [LKKLLKLLKKALKLAG] | 
14 | 48.9 (≈ 50 µg/mL) |  | 78.3 (≈ 79.9 µg/mL) | 9.78 (≈ 9.99 µg/mL) | NC(=O)[C@H](Cc1c[nH]c2ccccc12)NC(=O)[C@H](CCCN=C(N)N)NC(=O)[C@H](Cc1ccc(O)cc1)NC(=O)[C@H](CCCN=C(N)N)NC(=O)[C@H](Cc1c[nH]c2ccccc12)NC(=O)[C@@H](N)CCCN=C(N)N [RWRYRW] | 
15 | > 100 |  | > 100 | > 100 | CC(C)C[C@H](NC(=O)[C@H](CC(=O)O)NC(=O)[C@@H](NC(=O)[C@H](CCCCN)NC(=O)[C@H](CC(C)C)NC(=O)[C@@H](N)CCC(N)=O)C(C)C)C(=O)N[C@@H](Cc1c[nH]c2ccccc12)C(=O)NCC(=O)N[C@H](C(=O)N[C@@H](CCCN=C(N)N)C(N)=O)[C@@H](C)O [QLKVDLWGTR] | 
16 | > 100 |  | > 100 | > 100 | CC(C)[C@H](NC(=O)[C@H](CC(=O)O)NC(=O)[C@H](CO)NC(=O)[C@@H](N)CCCCN)C(=O)N[C@@H](CCCN=C(N)N)C(=O)N[C@@H](CCCN=C(N)N)C(=O)N[C@@H](Cc1c[nH]c2ccccc12)C(=O)N[C@@H](CCCN=C(N)N)C(=O)N[C@@H](CO)C(=O)N[C@@H](CCCN=C(N)N)C(=O)N[C@@H](Cc1ccc(O)cc1)C(N)=O [KSDVRRWRSRY] | 
17 | 28.3 (≈ 48.6 µg/mL) | 40 (≈ 68.7 µg/mL) |  |  | CC(=O)N[C@@H](CC(C)C)C(=O)N[C@@H](CCCCN)C(=O)N[C@@H](CCCCN)C(=O)N[C@@H](CC(C)C)C(=O)N[C@@H](CC(C)C)C(=O)N[C@@H](CCCCN)C(=O)N[C@@H](CC(C)C)C(=O)N[C@@H](CC(C)C)C(=O)N[C@@H](CCCCN)C(=O)N[C@@H](CCCCN)C(=O)N1CCC[C@H]1C(=O)N[C@@H](CC(C)C)C(=O)N[C@@H](CCCCN)C(=O)N[C@@H](CC(C)C)C(N)=O [LKKLLKLLKKPLKL] | 
18 | > 25.9 |  |  |  | CC[C@H](C)[C@H](NC(=O)[C@H](CCCN=C(N)N)NC(=O)[C@H](CCC(=O)O)NC(=O)[C@H](CCCCN)NC(=O)[C@H](CCC(=O)O)NC(=O)[C@H](CCCCN)NC(=O)[C@H](CO)NC(=O)[C@H](CC(C)C)NC(=O)[C@@H](N)[C@@H](C)O)C(=O)N[C@H](C(=O)N[C@@H](CCC(N)=O)C(=O)N[C@@H](CCCN=C(N)N)C(=O)N[C@H](C(=O)N[C@@H](CCCN=C(N)N)C(=O)N[C@H](C(=O)N[C@@H](CO)C(=O)O)[C@@H](C)O)C(C)C)C(C)C [TLSKEKERIVQRVRTS] | MIC (Escherichia coli): > 25.9 µM
19 | > 489 | > 489 |  |  | CC(C)C[C@H](NC(=O)[C@H](C)NC(=O)[C@H](Cc1ccc(O)cc1)NC(=O)[C@H](CC(C)C)NC(=O)[C@H](CCCN=C(N)N)NC(=O)[C@H](C)NC(=O)[C@H](CC(C)C)NC(=O)[C@H](CO)NC(=O)[C@H](C)NC(=O)[C@H](CC(C)C)NC(=O)[C@@H](N)CC(=O)O)C(=O)N[C@@H](C)C(=O)N[C@@H](CCCN=C(N)N)C(N)=O [DLASLARLYALAR] | 
